In ChEMBL document CHEMBL1151059, “Synthesis and x-ray structure of a potent superpositional analog of the enantiomeric forms of fluoxetine” (Bioorg Med Chem Lett, 1993):

Experiment: Tested in vitro for inhibition of Serotonin uptake
Format: functional

| SMILES | Activity [nM] |
| --- | --- |
| FC(F)(F)c1ccc(OC2(c3ccccc3)CCNCC2)cc1 | 580 |
| CNCCC(Oc1ccc(C(F)(F)F)cc1)c1ccccc1 (configuration not stated) | 700 |
